SMILES | pKa
O=C(Nc1cccc2cnccc12)c1ccc(-c2ccccc2)cc1 | 4.1
O=C1CN=C(c2ccccc2)c2cc3ccccc3cc2N1 | 3.8
O=c1[nH]c2c(Cc3nn[n-]n3)c3ccccc3n2c2ccccc12 | 4.42
CCOCC(=O)N1CCC(CNc2nc3c(s2)CCOc2ccc(F)cc2-3)CC1 | 3.7
CNC(=O)c1c(NCC2CCC3(CCC3)CC2)nc(C#N)nc1OC1CC(C)(C)[NH2+]C(C)(C)C1 | 9.2
CC(C)COC(=O)Nc1ccc(-c2cnc3c(-c4ccc(N5CC[NH+](C)CC5)cc4)cnn3c2N)cc1 | 8.2
COc1ccc(SC)c2c1C[C@@H]1[C@@H](C2)OCC[NH+]1C | 6.25
O=C([O-])c1ccc(-c2nc(-c3cccc(C(F)(F)F)c3)cs2)cc1 | 4.1
O=c1cc(CSc2cccc(F)c2F)nc2cc(-c3ccco3)[nH]n12 | 7.5
CC(C)(C)[NH2+]C[C@H](O)c1cc(Cl)c(N)c(Cl)c1 | 9.7
COc1ccc(SCCc2ccncc2)cc1 | 5.6
N#Cc1ncc2cc(COc3ccc(C(=O)[O-])cc3)n(CCC3CCCCC3)c2n1 | 4.2
CC#CCn1c(N2CC[NH2+]CC2)c(C#N)c2ncn(CC(=O)c3cccc(OC)c3)c(=O)c21 | 8.2
CS(=O)(=O)c1ccc(-c2nc3c(c(=O)[nH]2)COCC3)cc1 | 7.31
Cc1ccc(C)n1-c1ccc(Cl)cc1C(=O)[O-] | 3.35
CC(C)[NH+](CCc1c[nH]c2ccccc12)Cc1ccc(CCC(=O)N=O)cc1 | 8.66
O=C1NC(=O)C(c2c[nH]c3ccccc23)=C1c1nc(N2CCOCC2)nc2ccccc12 | 9.3
COc1ccc(-c2c(C)nc3c(-c4ccccn4)cnn3c2N)cc1 | 6.07
CS(=O)(=O)Nn1c(=O)[nH]c2cc(C(F)(F)F)ccc2c1=O | 8.35
C=CCNc1ccc2c(c1)c(-c1ccc(C(C)C)cc1)nc(=O)n2C(C)C | 2.9
NC1=[NH+]c2ccccc2CC1 | 9.55

SMILES | pKa
Cc1[nH]c2ccccc2c1CC[NH+]1CCc2cc(CCC(=O)N=O)ccc2C1 | 7.96
Cc1ccc(Nc2c(F)cccc2Cl)c(CC(=O)[O-])c1 | 4.2
COc1ccc(N2CCc3c(-n4ccc(N5CCNC5=O)n4)cc(C)nc32)c(C)c1 | 6.37
Cc1ccc(-c2cc(C(F)(F)F)nn2-c2ccc(S(N)(=O)=O)cc2)cc1 | 9.46
CCN1c2ccc(C#N)cc2N=C(c2ccc(C(=O)[O-])c(F)c2)c2cc3c(cc21)C(C)(C)CCC3(C)C | 3
O=C([O-])c1ccc(NC(=O)c2cn(-c3ccccc3)nc2-c2ccc(Cl)cc2)cc1 | 4.2
CC(C)N(CCCCOCC(=O)NS(C)(=O)=O)c1cnc(-c2ccccc2)c(-c2ccccc2)n1 | 3.37
CCc1ccc(-c2cnc(C)nc2NC2CCCC2)cc1 | 6.8
C/C(=C\c1cccc(C)n1)[C@@H]1C[C@@H]2O[C@]2(C)CCC[C@H](C)[C@H](O)[C@@H](C)C(=O)C(C)(C)[C@@H](O)CC(=O)O1 | 5.5
CC(C)(C)OC(=O)N1CCC(C(=O)NS(=O)(=O)c2c(Cl)sc(Cl)c2Br)CC1 | 2.1
Clc1ccc(OCc2nn[n-]n2)c(C2CCCCC2)c1 | 3.87
Cc1cccc(C)c1C(=O)N1CCC(C)([NH+]2CCC(N(c3ccccc3)c3ccccc3)CC2)CC1 | 8.35
COc1cc(CN(CC(=O)NCc2ccccc2Cl)S(=O)(=O)c2ccc(CN3CC[NH+](C)CC3)cc2)ccc1OCC(C)C | 7.17
C/C(=C\c1ccc(C)cn1)[C@@H]1C[C@@H]2O[C@]2(C)CCC[C@H](C)[C@H](O)[C@@H](C)C(=O)C(C)(C)[C@@H](O)CC(=O)O1 | 4.5
CC(C)(C)Cn1c(CN2C(=O)CC3(CC[NH2+]CC3)C2=O)cc2cnc(C#N)nc21 | 9.2
CC(=O)N1CCC(CNc2nc3c(s2)CCCc2ccc(F)cc2-3)CC1 | 4.31
Fc1ccc2c(/C=C/c3nn[n-]n3)c[nH]c2c1 | 4.94
CS(=O)(=O)c1ccc(C(=O)Nc2ccc(Cl)c(-c3ccccn3)c2)c(Cl)c1 | 3.84
Cc1nc(-n2ccc([O-])cc2=O)sc1C(=O)NCc1ccccc1 | 5.2
Cc1c(CC(=O)[O-])c2cccnc2n1S(=O)(=O)c1ccc(Cl)cc1 | 3.86
